# Structures can show the parent of a compound that is named as a salt.
# How the values were obtained:
# KRAS21 G-quadruplex DNA = experiment: FRET melting assay, KRAS G-quadruplex DNA; type: binding; conditions: standard deviation < 0.2°C; for ΔTm (°C) KRAS21 1 μM: 1 μM compound; for ΔTm (°C) KRAS21 2 μM: 2 μM compound
# Method: (§1) The capacity of compounds 1a-d, 2a-d and the standard G4 ligand TMPyP4 (Fig 1) to bind and stabilize KRAS [26] and HSP90A [27] G4 DNA structures as well as duplex DNA (T-loop) was evaluated by a Fluorescence Resonance Energy Transfer (FRET) melting assay. […] It was observed that the basicity of side chains correlates positively with thermal G4 stabilization of all DNA sequences up to an optimal pKa ~ 8.0–9.0 (Fig 2). Heterocyclic amines at the end of alkyl side chain (1b and 2b) appear to improve binding to G4s and complex stabilization compared to the di-ethylamine group (1a and 2a), which cannot be explained by differences in basicity between terminal groups. […] However, this was not observed for the isomeric pair 1a / 2a.
# (§2) All oligonucleotides were purchased from Eurofins MWG Synthesis GmbH, Germany. The labeled oligonucleotides used in the FRET assays had attached the donor fluorophore FAM (6-carboxyfluorescein) and the acceptor fluorophore TAMRA (6-carboxytetramethylrhodamine): KRAS21R (5’-FAM-[…]-TAMRA-3’); HSP90A (5’- [FAM]-[…]-[TAMRA]-3’); T-Loop (5’-FAM-[…]-TAMRA-3’). Each oligonucleotide was initially diluted to a storage solution at 100 μM in nuclease free water (not DEPC-treated), purchased from Ambion Applied Biosystems UK.
# (§3) The ability of IQ3A and TMPyP4 to stabilize G-quadruplex and duplex DNA sequences was investigated using a Fluorescence Resonance Energy Transfer (FRET) assay. Stock solution of the oligonucleotides sequences at 20 μM and subsequent dilutions were obtained from storage solutions diluting with K-cacodylate buffer pH = 7.4, containing 60 mM K^+ (10 mM potassium cacodylate, 50 mM KCl). The FRET probe sequences were diluted from stock to the correct concentration (0.4 μM) and then annealed by heating to 95°C for 10 min, followed by cooling to RT. Test compounds were prepared as 1 mM in 10% DMSO and 10% 1mM HCl in HPLC-grade water. The rest of the dilutions were performed using FRET buffer. Annealed DNA (50 μL) and compound solution (50 μL) were distributed across 96-well RT-PCR plates (BioRad; MJ Research, Waltham, MA, USA). Relevant controls were also performed to check for interference with the assay. Fluorescence readings were made on a DNA Engine Opticon (MJ Research) with excitation at 450–495 nm and detection at 515–545 nm, taken at intervals of 0.5°C in the range 30–100°C, with a constant temperature being maintained for 30 s prior to each reading to ensure a stable value. Experiments were performed in triplicate. Final analysis of the data was carried out with GraphPad Prism 5.0 software (GraphPad Software, Inc). The advanced curve-fitting function in GraphPad Prism was used for calculation of ΔT m values and associated standard deviations.
# HSP90A G-quadruplex DNA = experiment: FRET melting assay, HSP90A G-quadruplex DNA; type: binding; conditions: standard deviation < 0.2°C; for ΔTm (°C) HSP90A 1 μM: 1 μM compound; for ΔTm (°C) HSP90A 2 μM: 2 μM compound
# Method: as §1, §2, §3
# T-Loop duplex DNA = experiment: FRET melting assay, duplex DNA; type: binding; conditions: standard deviation < 0.2°C; for ΔTm (°C) T-Loop 1 μM: 1 μM compound; for ΔTm (°C) T-Loop 2 μM: 2 μM compound
# Method: as §1, §2, §3
# HCT116 cells [1] = experiment: MTS short-term cytotoxicity assay (72 h), HCT116; type: cell-based, human; conditions: for HCT116 IC65 / IC50: 72 h, MTS, standard errors ≤ 0.1; for Selective index (SI) = IC50 CCD-18co / IC50 HCT116: CCD18co vs HCT116; for IC50: Homo sapiens, HCT-116, read-out: HCT116 IC50
# Method: (§4) The short-term effect of compounds at 72 h on cell growth was studied using colorectal carcinoma cell lines with different KRAS and TP53 genotypes: human colorectal carcinoma HCT116 (mut Kras, wild-type (wt) p53), and human metastatic colorectal adenocarcinoma SW620 (mut Kras, mut p53). In parallel, we also used the immortalized human embryonic kidney cell line HEK293T (wt Kras, wt p53) and normal human colon fibroblast cells CCD18co (wt Kras, wt p53).
# (§5) SW620 human colorectal adenocarcinoma cells (European Collection of Cell Cultures, ECACC, Porton Down, Wiltshire, UK), HEK293T human embryonic kidney cells (ATCC, LGC Standards, UK) HCT116 human colon carcinoma cells (ECACC), HCT116 p53(+/+) and p53(−/−) isogenic human colon cancer cells (GRCF Cell Center and Biorepository, the Johns Hopkins University, School of Medicine, Baltimore, MD, USA), were grown in Dulbecco’s modified Eagle’s medium (DMEM) supplemented with 10% fetal bovine serum, and 1% antibiotic/antimycotic (Invitrogen, Grand Island, NY, USA), CCD18co human colon fibroblasts (ATCC, CRL-1459) were grown in Minimum Essential Medium (MEM) supplemented with 10% fetal bovine serum, 1% antibiotic/antimycotic, 2 mM GlutaMAX, 0,1 mM Non-essential amino acids (NEAA) (Invitrogen) and […] Recombinant Human TNF-α (Peprotech, USA) and maintained at 37°C in a humidified atmosphere of 5% CO2.
# (§6) Cell viability was evaluated by the tetrazolium dye (MTS) Short-Term Cytotoxicity Assay. […] Following 72 h of compound exposure, cell viability was evaluated using the CellTiter 96 AQueous Non-Radioactive Cell Proliferation Assay (Promega, Madison, WI, USA), using 3-(4,5-dimethylthiazol-2-yl)-5-(3-carboxymethoxyphenyl)-2-(4-sulfophenyl)-2H-tetrazolium, inner salt (MTS) as previously described [35]. Cell viability data were expressed as mean ±SD from at least three independent experiments. IC50 and IC65 values were determined using GaphPad Prism v.5.00 (GraphPad Software). In selected experiments, cell viability was also assessed by trypan blue exclusion assay, and general cell death by LDH activity from cell culture supernatants.
# SW620 cells [2] = experiment: MTS short-term cytotoxicity assay (72 h), SW620; type: cell-based; conditions: for SW620 IC65 / IC50: 72 h, MTS, standard errors ≤ 0.1; for IC50: Homo sapiens, SW-620, read-out: SW620 IC50
# Method: as §4, §5, §6
# HEK293T cells = experiment: MTS short-term cytotoxicity assay (72 h), HEK293T; type: cell-based, human; conditions: MTS; for IC50: Homo sapiens, HEK-293T, standard errors ≤ 0.1, read-out: HEK293T IC50; for HEK293T IC65: standard errors ≤ 0.1
# Method: as §4, §5, §6
# CCD18co cells = experiment: MTS short-term cytotoxicity assay (72 h), CCD18co; type: cell-based; conditions: Homo sapiens, CCD-18Co, MTS, standard errors ≤ 0.1, read-out: CCD18co IC50
# Method: as §4, §5, §6
# KRAS mRNA = KRAS mRNA steady-state levels by Taqman Real-time RT-PCR; conditions: IC50 concentrations
# HCT116 cells [3] = test system: HCT116 cells; parameters: method as in PMID 23960016; conditions: HCT116 vs primary rat hepatocytes; cited from earlier work
# SW620 cells [4] = experiment: Guava ViaCount assay, SW620; type: cell-based, human; conditions: SW620, 72 h, IC50 and IC65 concentrations
# Excerpt: Subsequently, the Guava ViaCount assay was used to evaluate the effects of IQ3A compounds on cell death induction in cancer (HCT116 and SW620) and non-malignant (HEK293T and CCD18co) cells, compared to 5-FU and TMPyP4 at equitoxic concentrations (IC50 and IC65). Down-regulation of mutant KRAS expression by antisense oligonucleotides in colorectal cancer cells,[8],[30] and by a MAZ-binding oligonucleotide decoy in pancreatic cancer cells has been associated with increased apoptosis and cell growth arrest. Also, anticancer drugs, such as 5-FU and G4 stabilizers of telomeric and oncogene promoter sequences such as TMPyP4, are known to induce a generalized cell response leading to cell growth arrest and cell death by apoptosis (DNA damage response),[32], which involves activation of the pro-apoptotic transcription factor p53 among other pathways in the case of 5-FU [34]. […] The effect of TMPyP4 on SW620 was not studied, as this cell line was not sensitive to this compound up to a 20 μM concentration.
# Fig 3 Exposure to IQ3A compounds induces cell death, mainly by apoptosis in HCT116 cells. […] Results are expressed as the mean percentage (%) of viable, mid-apoptotic and dead cells ± SEM, of at least three different experiments, for A. IC50, and for B. IC65 compound concentrations. a, p < 0.05; b, p < 0.01 from DMSO (vehicle control); c, p < 0.05; and d, p < 0.01 from 5-FU. […]
Compound,melting point [°C],ΔTm (°C) KRAS21 1 μM (KRAS21 G-quadruplex DNA) [°C],ΔTm (°C) KRAS21 2 μM (KRAS21 G-quadruplex DNA) [°C],ΔTm (°C) HSP90A 1 μM (HSP90A G-quadruplex DNA) [°C],ΔTm (°C) HSP90A 2 μM (HSP90A G-quadruplex DNA) [°C],ΔTm (°C) T-Loop 1 μM (T-Loop duplex DNA) [°C],ΔTm (°C) T-Loop 2 μM (T-Loop duplex DNA) [°C],HCT116 IC65 (HCT116 cells [1]) [nM],Selective index (SI) = IC50 CCD-18co / IC50 HCT116 (HCT116 cells [1]),IC50 (HCT116 cells [1]) [nM],SW620 IC65 (SW620 cells [2]) [nM],IC50 (SW620 cells [2]) [nM],IC50 fold lower than that of 5-FU (SW620 cells [2]; SW620 cells) [fold],IC50 (HEK293T cells) [nM],HEK293T IC65 (HEK293T cells) [nM],IC50 (CCD18co cells) [nM],"down-regulation of KRAS transcription (mRNA) (KRAS mRNA; HCT116, 72 h) [%]","down-regulation of KRAS transcription (mRNA) (KRAS mRNA; SW620, 72 h)",Selective growth inhibition of KRAS mutant HCT116 cells compared to primary rat hepatocytes (HCT116 cells [3]) [fold],induction of apoptosis / cell death (SW620 cells [4])
O=C(OCCCN1CCCCC1)c1ccc2c(c1)c1nc3ccccc3c(OCCCN3CCCCC3)c1n2CCCN1CCCCC1 (as salt: salt) [1d],124 to 128,,,,,,,,,,,,,,,,,,,
O=C(OCCCN1CCCCC1)c1ccc2c(c1)c1c(c(=O)c3ccccc3n1CCCN1CCCCC1)n2CCCN1CCCCC1 [2d],,13,22,19,25,4,12,580,5.45,400,450,280,~20,700,1120,2180,~40,not significantly so,,
CCN(CC)CCOC(=O)c1ccc2c(c1)c1c(c(=O)c3ccccc3n1CCN(CC)CC)n2CCN(CC)CC [2a],,4,7,11,15,<2,<2,1600,5.46,990,1440,670,,670,940,5410,~40,not significantly so,100,
O=C(OCCN1CCCC1)c1ccc2c(c1)c1nc3ccccc3c(OCCN3CCCC3)c1n2CCN1CCCC1 (as salt: salt) [1b],159 to 164,,,,,,,,,,,,,,,,,,,
O=C(OCCN1CCCC1)c1ccc2c(c1)c1nc3ccccc3c(OCCN3CCCC3)c1n2CCN1CCCC1 [1b],,5,10,12,16,<2,6,,,,,,,,,,,,,
"O=c1[nH]cc(F)c(=O)[nH]1 [5-FU, 5-fluorouracil, reference compound]",,,,,,,,4130,> 42,2380,8320,5390,,2660,4130,> 100000,,,,able to induce apoptosis in a dose-dependent manner
O=C(OCCN1CCOCC1)c1ccc2c(c1)c1nc3ccccc3c(OCCN3CCOCC3)c1n2CCN1CCOCC1 (as salt: salt) [1c],141 to 145,,,,,,,,,,,,,,,,,,,
O=C(OCCCN1CCCCC1)c1ccc2c(c1)c1nc3ccccc3c(OCCCN3CCCCC3)c1n2CCCN1CCCCC1 [1d],,9,18,15,21,<2,10,,,,,,,,,,,,,
O=C(OCCN1CCCC1)c1ccc2c(c1)c1c(c(=O)c3ccccc3n1CCN1CCCC1)n2CCN1CCCC1 [2b],,10,16,14,19,3,6,,,,,,,,,,,,,
O=C(OCCN1CCOCC1)c1ccc2c(c1)c1nc3ccccc3c(OCCN3CCOCC3)c1n2CCN1CCOCC1 [1c],,<2,<2,4,7,<2,<2,,,,,,,,,,,,,
